Key:
[1] = system: EGFR-mutated locally advanced or metastatic NSCLC; assay: MARIPOSA Phase 3, time to subsequent therapy (TTST) and subsequent therapy; format: in vivo, human
[2] = system: EGFR-mutated locally advanced or metastatic NSCLC; assay: MARIPOSA Phase 3, time to symptomatic progression (TTSP); format: in vivo, human

C=CC(=O)Nc1cc(Nc2nccc(-c3cn(C)c4ccccc34)n2)c(OC)cc1N(C)CCN(C)C [Osimertinib]
Censored (TTST) ([1]; Full Analysis Set): 232 (54.1%) (%) | Event (TTST) ([1]; Full Analysis Set): 197 (45.9%) (%) | TTST 6-month event-free rate (95% CI) ([1]; Full Analysis Set): 0.91 (0.88, 0.93) | TTST 12-month event-free rate (95% CI) ([1]; Full Analysis Set): 0.77 (0.73, 0.81) | TTST 18-month event-free rate (95% CI) ([1]; Full Analysis Set): 0.63 (0.58, 0.67) | TTST Median (95% CI) ([1]; Full Analysis Set): 24.08 (22.01, 28.98) months | TTST time to event, 25th percentile (95% CI) ([1]; Full Analysis Set): 13.11 (10.58, 14.36) months | TTST time to event, 75th percentile (95% CI) ([1]; NE = not estimable): NE (NE, NE) | Censored (TTSP) ([2]; Full Analysis Set): 202 (61.1%) (%) | Death without Symptomatic PD ([2]; Full Analysis Set): 49 (11.4%) (%) | Event (TTSP) ([2]; Full Analysis Set): 167 (38.9%) (%) | Symptomatic PD ([2]; Full Analysis Set): 118 (27.5%) (%) | TTSP 6-month event-free rate (95% CI) ([2]; Full Analysis Set): 0.90 (0.87, 0.93) | TTSP 12-month event-free rate (95% CI) ([2]; Full Analysis Set): 0.79 (0.74, 0.82) | TTSP 18-month event-free rate (95% CI) ([2]; Full Analysis Set): 0.67 (0.63, 0.72) | TTSP 24-month event-free rate (95% CI) ([2]; Full Analysis Set): 0.59 (0.53, 0.64) | TTSP 30-month event-free rate (95% CI) ([2]; Full Analysis Set): 0.49 (0.40, 0.58) | TTSP Median (95% CI) ([2]; NE = not estimable): 29.31 (29.31, NE) months | TTSP time to event, 75th percentile (95% CI) ([2]; NE = not estimable): NE (NE, NE)
